# System: RAW264.7 cells
# Assay: Binding and cellular internalization of LPS and CpG DNA to RAW264.7 cells (confocal microscopy)
# Format: cell-based, murine
# Conditions: KB 50, 100 and 200 μM, dose-dependent
# Method: 21.1 Methods: RAW264.7 cells were cultured in 20 mm cell culture dishes for confocal microscopy applications, and diluted to 5×10^5/ml in DMEM supplemented with 10% (v/v) NCS; 1 ml of the above suspension was transferred into each cell culture dishes and cultured at 37° C. in a 5% CO2 humidified incubator for 4 h; for the purpose of experiment three groups were established, medium group, stimulation group and KB treatment group; the concentration and loading patterns of each group were consistent with Embodiment 12; the cells were then fixed with 4% paraform for 10 min after 30 min of culture, and washed thrice with PBS; nucleus were stained with DAPI (100 ng·mL^−1) for 2 min, washed with PBS thrice, mounted with a solution of 50% glycerol and 50% PBS, and stored in dark place until intensity and distribution of fluorescence of LPS and CpG DNA on RAW264.7 cells surface were observed under a confocal microscopy.
structure (smiles),measurement,setting,value
"NCCCN(CCCCNCCCNC(=O)CCc1ccc(O)c(O)c1)C(=O)CCc1ccc(O)c(O)c1 [KB, Kukoamine B]",green fluorescence intensity of 5-FAM (CpG DNA) on the surface of and inside RAW264.7 cells,5-FAM-CpG DNA 10 μg/ml,significantly weakened
same,green fluorescence intensity of FITC (LPS) on the surface of and inside RAW264.7 cells,FITC-LPS 200 ng/ml,significantly weakened

# Source: patent US10039729B2, “Use of kukoamine A and kukoamine B” (Tianjin Chase Sun Pharmaceutical Co., Ltd., priority 2010, dated 2018)
